{"source": "patent US20120065126A1", "about": "“Pharmaceutical Compositions Containing Antifungal Peptides” (BASF SE, priority 2009, published 2012)", "key": {"C. albicans (DSM 11948)": {"test_system": "C. albicans (DSM 11948)", "test": "P18 in pharmaceutical base formulation (CFU)", "format": "cell-based, Candida albicans", "settings": "mixed 1:9 with suspension", "experimental": "The aim of the experiment was to study the effect of a pharmaceutical base formulation with the P18 peptide ingredient (P18 sequence H-KWKLFKKIPKFLHLAKKF-NH2 (Bachem AG, Switzerland)). For this purpose, the following base formulation was used: […]\n1% hydroxycellulose 10% propylene glycol made up with water.\nBased on the base formulation, formulations with rising P18 concentrations (500 ppm to 10 000 ppm) were prepared from a 20% concentrate solution.\nThe effect of the formulations on C. albicans (DSM 11948) was studied.\nYM growth medium (Becton, Dickinson and Company, Sparks, USA) 3 g of yeast extract 3 g of malt extract 5 g of peptone 10 g of dextrose make up to 1 liter, set pH 6.2\nThe growth test was effected as follows: 5 ml of YM medium were inoculated with C. albicans and incubated at 30° C. and 200 rpm overnight.\n1.5 ml reaction vessels were each filled with 1 ml of YM medium and inoculated with the C. albicans suspension from the overnight culture such that an optical density—measured at 600 nm—of 0.1 was obtained at the start of the experiment. The resulting C. albicans suspension was mixed in a ratio of 1:9 (formulation: C. albicans suspension) with the formulations. 1 μl of the culture was diluted with 20 μl of YM medium after 5 minutes, 10 minutes, 20 minutes and 60 minutes, and then plated out. After incubation over 24 hours, the colonies on the plates were counted."}, "M. furfur": {"test_system": "M. furfur", "format": "cell-based, Malassezia furfur", "settings": "shampoo base formulation 31-3 present", "experimental": "The studies described hereinafter were conducted on the Malassezia furfur strain DSM 6170.\nThe minimum inhibitory concentration (MIC) of peptide P18 (H-KWKLFKKIPKFLHLAKKF-NH2; carboxyl terminus amidated) in the presence of shampoo base formulation 31-3 (Table 10) was tested in the following manner: […]\nTo prepare the shampoo base formulation, the Texapon NSO and Tego Betain L7 components were mixed and dissolved. NaOH was used to adjust the pH to pH 6-7.\nThe growth test was effected as follows: a shake culture containing M472 Pityrosporum medium was inoculated with M. furfur and incubated with shaking at 30° C. and 200 rpm overnight.\nA 96-well microtiter plate was filled with 170 μl per well of M472 Pityrosporum medium and inoculated with 10 μl of M. furfur suspension from an overnight culture. This corresponded to an optical density of 0.02-0.1, measured at 620 nm. 20 μl of shampoo base formulation 31-3 were added to this mixture. Peptide P18 was dissolved with a concentration of 10 mM in DMSO.\nThe microtiter plate was incubated with shaking at 30° C.\nAfter incubation for 24 hours, the colony forming units (CFU) were determined by resuspending 1 μl of each of the suspensions in 10 μl of medium, and then streaking them. After incubation over the course of 6 days, the colonies on the plate were counted. The experiment was conducted in double determination."}, "[1]": {"test_system": "Klebsiella pneumoniae (DSM 681)", "format": "cell-based", "settings": "DSM 681, 24 h", "text": "Effect of peptide P18 (P18 sequence H-KWKLFKKIPKFLHLAKKF-NH2 (Bachem AG, Switzerland)) on Klebsiella pneumoniae (DSM 681) to study.\nTSBY growth medium (Becton, Dickinson and Company, Sparks, USA) 17 g of pancreatin-degraded caseine 3 g of pancreatin-degraded soya 2.5 g of dextrose 5 g of sodium chloride 2.5 g of dipotassium phosphate 3 g of yeast extract (Becton, Dickinson and Company, Sparks, USA) make up to 1 liter, set pH 7\nA shake culture containing TSBY medium was inoculated with K. pneumoniae and incubated with shaking at 37° C. and 200 rpm overnight.\nThe suspension was adjusted to an optical density measured at 600 nm of 0.1. A 96-well microtiter plate was filled with 95 μl per well of the K. pneumoniae suspension. Then a dilution series of the peptide with a final concentration in the wells between 0 and 1000 ppm was added. To this end, 5 μl per well of peptide solution with a concentration in the range from 0 ppm to 20 000 ppm were added to the K. pneumoniae suspension, so as to obtain final concentrations of the peptide in the wells in the range between 0 ppm and 1000 ppm.\nThe microtiter plate was incubated at 37° C., 600 rpm. The bacterial growth was assessed by measuring the optical density at 620 nm and observing it over 24 hours. The experiments were conducted at least in double determination and were independently repeated at least once."}}, "note": "Like-named read-outs stand apart in the source and are kept apart here."}
{"substance": "H-KWKLFKKIPKFLHLAKKF-NH2 [P18, H-KWKLFKKIPKFLHLAKKF-NH2]", "values": [{"measurement": "Colony forming units after the incubation time specified", "setting": "C. albicans (DSM 11948); 10 000 ppm in the formulation, 5 minutes", "result": "0.5 ± 0", "unit": "CFU"}, {"measurement": "Colony forming units after the incubation time specified", "setting": "C. albicans (DSM 11948); 10 000 ppm in the formulation, 10 minutes", "result": "0 ± 0", "unit": "CFU"}, {"measurement": "Colony forming units after the incubation time specified", "setting": "C. albicans (DSM 11948); 10 000 ppm in the formulation, 20 minutes", "result": "0 ± 0", "unit": "CFU"}, {"measurement": "Colony forming units after the incubation time specified", "setting": "C. albicans (DSM 11948); 10 000 ppm in the formulation, 60 minutes", "result": "0 ± 0", "unit": "CFU"}, {"measurement": "Colony forming units after the incubation time specified", "setting": "C. albicans (DSM 11948); 500 ppm in the formulation, 5 minutes", "result": "1484 ± 28", "unit": "CFU"}, {"measurement": "Colony forming units after the incubation time specified", "setting": "C. albicans (DSM 11948); 500 ppm in the formulation, 10 minutes", "result": "1445 ± 38", "unit": "CFU"}, {"measurement": "Colony forming units after the incubation time specified", "setting": "C. albicans (DSM 11948); 500 ppm in the formulation, 20 minutes", "result": "1262 ± 354", "unit": "CFU"}, {"measurement": "Colony forming units after the incubation time specified", "setting": "C. albicans (DSM 11948); 500 ppm in the formulation, 60 minutes", "result": "962 ± 738", "unit": "CFU"}, {"measurement": "Colony forming units after the incubation time specified", "setting": "C. albicans (DSM 11948); 1000 ppm in the formulation, 5 minutes", "result": "863 ± 553", "unit": "CFU"}, {"measurement": "Colony forming units after the incubation time specified", "setting": "C. albicans (DSM 11948); 1000 ppm in the formulation, 10 minutes", "result": "616 ± 76", "unit": "CFU"}, {"measurement": "Colony forming units after the incubation time specified", "setting": "C. albicans (DSM 11948); 1000 ppm in the formulation, 20 minutes", "result": "251 ± 109", "unit": "CFU"}, {"measurement": "Colony forming units after the incubation time specified", "setting": "C. albicans (DSM 11948); 1000 ppm in the formulation, 60 minutes", "result": "3.25 ± 1.8", "unit": "CFU"}, {"measurement": "Colony forming units after the incubation time specified", "setting": "C. albicans (DSM 11948); 2000 ppm in the formulation, 5 minutes", "result": "29 ± 23", "unit": "CFU"}, {"measurement": "Colony forming units after the incubation time specified", "setting": "C. albicans (DSM 11948); 2000 ppm in the formulation, 10 minutes", "result": "3.5 ± 3.5", "unit": "CFU"}, {"measurement": "Colony forming units after the incubation time specified", "setting": "C. albicans (DSM 11948); 2000 ppm in the formulation, 20 minutes", "result": "0.25 ± 0.4", "unit": "CFU"}, {"measurement": "Colony forming units after the incubation time specified", "setting": "C. albicans (DSM 11948); 2000 ppm in the formulation, 60 minutes", "result": "0 ± 0", "unit": "CFU"}, {"measurement": "Colony forming units after the incubation time specified", "setting": "C. albicans (DSM 11948); 5000 ppm in the formulation, 5 minutes", "result": "1 ± 0.7", "unit": "CFU"}, {"measurement": "Colony forming units after the incubation time specified", "setting": "C. albicans (DSM 11948); 5000 ppm in the formulation, 10 minutes", "result": "0 ± 0", "unit": "CFU"}, {"measurement": "Colony forming units after the incubation time specified", "setting": "C. albicans (DSM 11948); 5000 ppm in the formulation, 20 minutes", "result": "0 ± 0", "unit": "CFU"}, {"measurement": "Colony forming units after the incubation time specified", "setting": "C. albicans (DSM 11948); 5000 ppm in the formulation, 60 minutes", "result": "0 ± 0", "unit": "CFU"}, {"measurement": "Colony forming units (CFU) after incubation time of 24 hours", "setting": "M. furfur; P18 25 μM", "result": 80, "unit": "CFU"}, {"measurement": "Colony forming units (CFU) after incubation time of 24 hours", "setting": "M. furfur; P18 50 μM", "result": 32, "unit": "CFU"}, {"measurement": "Colony forming units (CFU) after incubation time of 24 hours", "setting": "M. furfur; P18 100 μM", "result": 0, "unit": "CFU"}, {"measurement": "Colony forming units (CFU) after incubation time of 24 hours", "setting": "M. furfur; P18 200 μM", "result": 0, "unit": "CFU"}, {"measurement": "Colony forming units (CFU) after incubation time of 24 hours", "setting": "M. furfur; P18 300 μM", "result": 0, "unit": "CFU"}, {"measurement": "Colony forming units (CFU) after incubation time of 24 hours", "setting": "M. furfur; P18 400 μM", "result": 0, "unit": "CFU"}, {"measurement": "Colony forming units (CFU) after incubation time of 24 hours", "setting": "M. furfur; P18 500 μM", "result": 0, "unit": "CFU"}, {"measurement": "Minimum inhibitory concentration", "setting": "[1]", "result": 125, "unit": "ppm"}]}
